Molecular target: T1, human AMPK α1β1γ1 enzyme (Homo sapiens, UniProt Q13131+Q9Y478)
T1 construct: purchased Carna Biosciences, Inc
Assay: Evaluation of AMPK activator, Test Example 1 (mobility-shift kinase assay, FL-Peptide 7)
Type: biochemical
Settings: for EC150 (compound concentration showing 150% relative to the control (100%)): human AMPK α1β1γ1, 25° C., 2 hours, 0.2 mM ATP final; for Emax: read-out: Emax (maximum rate of increase in activity within the measurement range)
Description: The obtained liquid was left to stand for 10 minutes.
The obtained liquid was allowed to react at 25° C. for 2 hours, and 10 μl of 20 mM EDTA was then added thereto to stop the reaction.
To detect phosphorylated fluorescent substrates, the reaction liquid was applied to a measuring device, LabChip EZ Reader II manufactured by Caliper Life Science, Inc., for detecting fluorescence by using differences in mobility due to differences in charge. The setting conditions for the device were pressure, −1.5 PSI; upstream voltage, −2250 V; downstream voltage, −400 V; post sample buffer sip time, 40 seconds; final delay, 120 seconds; and peak order, Product First.
A conversion rate was calculated from the peak heights of the resulting substrate and product. The conversion rate when not containing a compound was used as a control, and a concentration dependent curve was made by plotting the rate of increase in activity to the control at each concentration of a compound.

[1] = human AMPK α1β1γ1, relative to control (100%)

T1 sequence (Q13131 10-559 limits assumed): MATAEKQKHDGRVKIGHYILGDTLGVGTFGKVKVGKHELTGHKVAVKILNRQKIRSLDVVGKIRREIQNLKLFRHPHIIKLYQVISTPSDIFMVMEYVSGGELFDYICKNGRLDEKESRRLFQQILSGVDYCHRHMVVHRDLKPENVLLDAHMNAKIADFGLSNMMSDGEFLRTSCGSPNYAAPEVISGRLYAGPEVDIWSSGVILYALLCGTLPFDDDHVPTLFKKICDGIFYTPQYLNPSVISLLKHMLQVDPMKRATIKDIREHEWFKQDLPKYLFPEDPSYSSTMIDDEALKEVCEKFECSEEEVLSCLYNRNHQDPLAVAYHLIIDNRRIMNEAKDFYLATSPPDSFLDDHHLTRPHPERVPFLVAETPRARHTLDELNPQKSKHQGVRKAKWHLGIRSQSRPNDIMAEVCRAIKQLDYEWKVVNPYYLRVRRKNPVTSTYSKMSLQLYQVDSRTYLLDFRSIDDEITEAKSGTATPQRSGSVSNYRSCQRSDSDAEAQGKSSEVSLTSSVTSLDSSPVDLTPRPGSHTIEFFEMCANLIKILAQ
T1 sequence (Q9Y478 whole entry): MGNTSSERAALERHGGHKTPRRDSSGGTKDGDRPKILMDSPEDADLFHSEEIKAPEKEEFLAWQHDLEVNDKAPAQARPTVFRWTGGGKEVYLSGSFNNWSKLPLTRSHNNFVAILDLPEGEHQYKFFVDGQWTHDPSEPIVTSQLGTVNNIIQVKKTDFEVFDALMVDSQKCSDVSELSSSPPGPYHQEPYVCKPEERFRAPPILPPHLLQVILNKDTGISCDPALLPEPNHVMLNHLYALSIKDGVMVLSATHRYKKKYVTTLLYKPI
T1 sequence (P54619 whole entry partner): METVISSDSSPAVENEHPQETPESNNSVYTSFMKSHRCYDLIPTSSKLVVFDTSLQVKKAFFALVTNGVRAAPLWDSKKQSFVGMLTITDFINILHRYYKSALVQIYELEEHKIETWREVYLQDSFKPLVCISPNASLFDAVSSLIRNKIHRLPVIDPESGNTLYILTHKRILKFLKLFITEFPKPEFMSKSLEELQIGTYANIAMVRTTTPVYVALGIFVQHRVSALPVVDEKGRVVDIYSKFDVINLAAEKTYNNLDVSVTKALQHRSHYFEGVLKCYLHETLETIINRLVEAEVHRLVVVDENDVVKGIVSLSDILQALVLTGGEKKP

| SMILES | EC150 (compound concentration showing 150% relative to the control (100%)) | Emax [1] | Emax (maximum rate of increase in activity within the measurement range) [1] |
| --- | --- | --- | --- |
| CC(C)(C(=O)O)[C@]1(O)CC[C@@H](Oc2nc3nc(-c4ccc(N5CCCCC5)cc4)c(Cl)cc3[nH]2)CC1 [Compound I-3-51] | 4.5 nM | 338% |  |
| CN1CCc2cc(-c3nc4nc(O[C@H]5CC[C@](O)(C(C)(C)C(=O)O)CC5)[nH]c4cc3Cl)ccc21 [Compound I-3-52] | 2.3 nM | 400% |  |
| O=C(O)C1CCC(Oc2nc3nc(-c4ccc(N5CCOCC5)cc4)c(Cl)cc3[nH]2)C1 (centres unmarked) [Compound I-3-53] | 51 nM | 261% |  |
| CCC(Oc1nc2nc(-c3ccc(N4CCCC4)cc3)c(Cl)cc2[nH]1)c1cc(O)no1 (centres unmarked) [Compound I-3-69] | 60 nM | 259% |  |
| CC(C)(C(=O)O)[C@]1(O)CC[C@@H](Oc2nc3nc(-c4ccc(N5CCOCC5)cc4)c(Cl)cc3[nH]2)CC1 [Compound I-3-83] | 24 nM |  | 278% |
| CN(C)C(=O)N1CC=C(c2ccc(-c3nc4nc(O[C@H]5CC[C@H](C(C)(C)C(=O)O)CC5)[nH]c4cc3Cl)cc2)CC1 [Compound I-3-85] | 4.9 nM | 276% |  |
| CC(C)(CO)C1CCC(Oc2nc3nc(-c4ccc(N5CCOCC5)cc4)c(Cl)cc3[nH]2)CC1 (centres unmarked) [Compound I-3-89] |  | 236% |  |
| CN(C)C(=O)[C@H]1C[C@@H](Oc2nc3nc(-c4ccc(-c5ccc(C(=O)O)cc5)cc4)c(Cl)cc3[nH]2)C1 [Compound I-3-91] | 21 nM | 287% |  |
| CC(=O)N1CC=C(c2ccc(-c3nc4nc(OC5CCC(C(C)(C)CO)CC5)[nH]c4cc3Cl)cc2)CC1 (centres unmarked) [Compound I-3-92] | 23 nM | 303% |  |
| CC(C)(C(=O)O)C1CCC(Oc2nc3nc(-c4ccc(C5=CCOCC5)cc4)c(Cl)cc3[nH]2)CC1 (centres unmarked) [Compound I-3-93] | 9.6 nM | 301% |  |
| CC(C)(C(=O)O)[C@H]1CC[C@H](Oc2nc3nc(-c4ccc(-c5ccccc5O)cc4)c(Cl)cc3[nH]2)CC1 [Compound I-3-97] | 0.68 nM | 343% |  |
| CC(C)(C(=O)O)[C@H]1CC[C@H](Oc2nc3nc(-c4ccc(-c5ccc(C(=O)N6CCOCC6)cc5)cc4)c(Cl)cc3[nH]2)CC1 [Compound I-3-108] | 8.2 nM | 291% |  |
| O=C(O)C1([C@]2(O)CC[C@@H](Oc3nc4nc(-c5ccc(N6CCOCC6)cc5)c(Cl)cc4[nH]3)CC2)CCC1 [Compound I-3-123] | 18 nM | 243% |  |

Now from value to compound, other results behind:

| EC150 (compound concentration showing 150% relative to the control (100%)) | Emax [1] | SMILES | Emax (maximum rate of increase in activity within the measurement range) [1] |
| --- | --- | --- | --- |
| 22 nM | 333% | CC(C)(C(=O)O)[C@]1(O)CC[C@@H](Oc2nc3nc(-c4c(F)cc(N5CCOCC5)cc4F)ccc3[nH]2)CC1 [Compound I-3-62] |  |
| 24 nM | 233% | CC(=O)NC1CCN(c2ccc(-c3nc4nc(OC5CCC(C(C)(C)C(=O)O)CC5)[nH]c4cc3Cl)cc2)CC1 (centres unmarked) [Compound I-3-65] |  |
| 3.4 nM | 389% | CC(C)(C(=O)O)[C@]1(O)CC[C@@H](Oc2nc3nc(-c4ccc(-c5ccccc5)cc4)c(Cl)cc3[nH]2)CC1 [Compound I-3-66] |  |
| 47 nM | 236% | O=C(O)[C@]1(O)CC[C@@H](Oc2nc3nc(-c4ccc(N5CCOCC5)cc4)c(Cl)cc3[nH]2)CC1 [Compound I-3-75] |  |
| 21 nM | 203% | O=C(c1ccc(-c2ccc(-c3nc4nc(O[C@H]5CC[C@H](C(=O)O)CC5)[nH]c4cc3Cl)cc2)cc1)N1CCC(O)CC1 [Compound I-3-104] |  |
| 9.1 nM | 311% | CC(C)(C(=O)O)[C@H]1CC[C@H](Oc2nc3nc(-c4ccc(-c5ccc(C(=O)N6CCC(O)CC6)cc5)cc4)c(Cl)cc3[nH]2)CC1 [Compound I-3-106] |  |
| 23 nM | 260% | O=C(O)c1ccc(-c2ccc(-c3nc4nc(O[C@H]5C[C@@H](C(=O)N6CC(O)C6)C5)[nH]c4cc3Cl)cc2)cc1 [Compound I-3-115] |  |
| 1.6 nM | 300% | CC(C)(C(=O)O)[C@H]1CC[C@H](Oc2nc3nc(-c4ccc(-c5ccc(C(N)=O)cc5)cc4)c(Cl)cc3[nH]2)CC1 [Compound I-3-119] |  |

Source: US10093670B2, “Azabenzimidazole derivative having AMPK-activating activity” (Shionogi & Co., Ltd., priority 2011, dated 2018)
